Data as given in patent publication US20250171744A1, “METHODS OF REPROGRAMMING SOMATIC CELLS AND MATERIALS RELATED THERETO” (CITY OF HOPE, priority 2019, published 2025).
“Also recorded” adds a separate entry of the source.

Tests used:
[1] = system: human fibroblast (HF57) cells; test: Immunofluorescence of pluripotency surface markers (FIG. 25, 26); format: cell-based; conditions: for SSEA-4 and TRA 1-60 surface markers immunofluorescence: 1 μM for 7 days, DMEM with low methionine (15 mg/L)
Method: Post MTX treatment, the cells were labeled using primary antibodies (ant-SSEA4-anti mouse IgG3) followed by secondary antibodies conjugated to Alexa Fluor 488 goat anti-mouse IgG3. The cells were counterstained with DAPI. […] The cells were grown in regular DMEM medium with or without MTX. Scale Bar=400 μM.
Post MTX treatment, the cells were labeled using primary antibodies (anti-SSEA4-anti mouse IgG3 and anti-TRA 1-60 host-rabbit) followed by secondary antibodies conjugated to (Alexa Fluor 488 goat anti-mouse IgG3 and Alexa Fluor 594 donkey anti-rabbit). The cells were counterstained with DAPI. […] The cells were grown in DMEM medium with low methionine (15 mg/L). Scale Bar=400 μM (FIG. 26A); Scale Bar=200 μM (FIG. 26B).
Immunofluorescence analysis: The relative optimal image-based analysis of 2 key human pluripotent stem cells markers [octamer-binding transcription factor 4 (OCT4) and stage-specific embryonic antigen 4 (SSEA4)] was performed using the Pluripotent Stem Cell Immunocytochemistry Kit (Thermo Fisher Scientific) according to the manufacturer's instructions. Briefly, the cells were grown in 10% FBS DMEM supplemented with NEAAs and Glutamax in wells coated with 0.1% gelatin. For immunofluorescence localization, the cells were stained for SSEA4 and Oct4 and counterstained with DAPI using the kit (Thermo Fisher Scientific). The endogenous proteins were labeled using primary antibodies (anti-SSEA4 anti-mouse IgG3 and anti-OCT4 host-rabbit) followed by secondary antibodies conjugated to Alexa Fluor 488 goat anti-mouse IgG3 and Alexa Fluor 594 donkey anti-rabbit.
The quiescent nature of the MTX and PTX cells and the association of demethylation with the generation of induced pluripotent stem cells led to examining markers for stem cells formation. The 293T and HF57 cells were grown on 5% dialyzed FBS DMEM medium. DMEM without methionine, DMEM with 15 mg/L (half dose) and DMEM with 30 mg/L (regular DMEM) were used to grow the cells. […] Subsequently, the cells were assessed for markers linked to stem cells. […]

293T cells = test: Embryoid body formation from SSEA4 positive sorted cells (FIG. 27); format: cell-based, human
Method: (§1) HEK293T and HF57 were treated with MTX and PTX for 7 or more days in low methionine condition. SSEA4 positive cells were sorted using cell sorter and maintained on mTeSR™ Plus medium supplemented with HT.
293T cells were treated with MTX and/or PTX for 10 or more days. SSEA4 positive cells were sorted using single cell sorter and maintained on mTeSR1 medium. […] FIGS. 28-29 show the three-germ layer immunostaining of putative pluripotent stem cells derived from 293T cells treated with MTX and PTX.

HF57 [2] = test: as above; format: cell-based, human; conditions: treated 7 or more days, low methionine, mTeSR Plus + HT, after 15-days
Method: as §1

HEK293T cells = test: 3-germ layer immunocytochemistry of embryoid bodies (FIG. 29); format: cell-based, human; conditions: compared with H1 and iPSCs
From the text: (§2) Pluripotent cells can differentiate into all cell types, so these cells can be a biological resource for regenerative medicine. Somatic cells can acquire the embryonic stem cell-like pluripotency by the introduction of four transcription factors, Oct4, Sox2, Klf4 and c-Myc (Yamanaka factors). Murine ES-like cell lines were established from mouse embryonic fibroblasts (MEFs) and skin fibroblasts by simply expressing these four transcription factor genes encoding Oct4, Sox2, Klf4, and c-Myc (71). After introducing active transcription factors into somatic cells, the somatic cells closely resemble ES cells in gene expression patterns, cell biologic and phenotypic characteristics. Since then, numerous studies have established that these transcription factors mediate reprogramming regardless of developmental origins and epigenetic states of a cell. These transcription factors are non-functional in somatic cells due to gene silencing. […] Using the technology disclosed herein, nuclear reprogramming of somatic cells was induced possibly due to active Oct4, Sox2, Nanog, and other pluripotency genes, reduced DNA methylation, reduced histone methylation, and altered metabolism of certain biochemical factors (such as glutamine, glutamate, and GABA). This leads to the formation of embryoid bodies from single cells and differentiation into the mesoderm, endoderm, and neuronal ectoderm lineages with high efficiency in the differentiation medium. The 3-Germ Layer Immunocytochemistry Kit (ThermoFisher Scientific, USA), which analyzes spontaneously differentiated embryoid bodies derived from pluripotent stem cells for the presence of all 3-germ layers, was used to confirm the reprogramming. The assay detected widely accepted markers characteristic of the three embryonic germ layers: beta-Ill tubulin (TUJ1) for ectoderm, smooth muscle actin (SMA) for mesoderm, and alpha-fetoprotein (AFP) for endoderm. […] The ectoderm which differentiates to form the nervous system (spine, peripheral nerves, neurons, and brain) was not tested with this kit; however, the presence of neurons was confirmed by a different marker. A Human Neural Stem Cell Immunocytochemistry Kit (ThermoFisher Scientific, USA) which enables a convenient image-based analysis of common markers of human neural stem cells such as Nestin was used. […] Together, the disclosed methods result in the presence of all 3-germ layers in the MTX/PTX treated cells and these treated cells can differentiate into all cell types including beta cells.
(§3) A 3-germ layer immunocytochemistry kit (Thermo Fisher Scientific, USA) was used to assess the pluripotency of embryoid bodies derived from MTX and PTX treated cells.

HF57 [3] = test: as above; format: cell-based, human; conditions: compared with H1 and iPSCs
From the text: as §2, §3

[4] = treated 7 or more days, low methionine, mTeSR Plus + HT, after 15-days
[5] = treated 10 or more days, mTeSR1 medium, after 10-days

SMILES	SSEA-4 surface antigen immunofluorescence ([1]; 1 μM for 9-days, regular DMEM, no signals in control cells)	SSEA-4 and TRA 1-60 surface markers immunofluorescence [1]	embryoid body formation (293T cells; [4])	embryoid body formation (293T cells; [5])	embryoid body formation (HF57 [2])	presence of three germ layers in embryoid bodies (HEK293T cells)	presence of three germ layers in embryoid bodies (HF57 [3])
CN(Cc1cnc2nc(N)nc(N)c2n1)c1ccc(C(=O)N[C@@H](CCC(=O)O)C(=O)O)cc1 [MTX, methotrexate]	expression of SSEA-4 surface antigens	high levels of SSEA-4 and TRA 1-60; also recorded: expression of SSEA-4 and TRA 1-60 surface antigens	formed embryoid bodies	started forming embryoid bodies	start forming embryoid bodies	confirmed the presence of all three germ layers	confirmed the presence of all three germ layers
Nc1nc2[nH]cc(CCc3ccc(C(=O)N[C@@H](CCC(=O)O)C(=O)O)cc3)c2c(=O)[nH]1 [PTX, pemetrexed]	–	expression of SSEA-4 and TRA 1-60 surface markers	formed embryoid bodies	started forming embryoid bodies	start forming embryoid bodies	confirmed the presence of all three germ layers	confirmed the presence of all three germ layers
